Usually MIC stands for the least concentration at which growth counts as inhibited.

In ChEMBL document CHEMBL3085639, “Novel camphane-based anti-tuberculosis agents with nanomolar activity” (2013) one finds MIC data, which are given here for 6 compounds.

≈ marks a conversion by molar mass, not a printed value. A value given as a limit tells only on which side of the number the result lay.

The test system of the assay is Mycobacterium tuberculosis. Nature of the assay: Antimycobacterial activity against rifampin/isoniazid-resistant Mycobacterium tuberculosis 43 assessed as growth inhibition after 45 days by Canetti proportional method. Format: functional.
In the case of `CC1(C)[C@@H]2CC[C@@]1(C)[C@H](O)[C@@H]2NC(=O)/C=C/c1ccccc1`, the MIC was 6.68 µM (≈ 2 µg/mL).

Regarding `CC1(C)[C@@H]2CC[C@@]1(C)[C@H](O)[C@@H]2NC(=O)c1ccco1`, the MIC was found to be 7.59 µM (≈ 2 µg/mL).

As to `CC(=O)Oc1ccccc1C(=O)N[C@@H]1[C@H]2CC[C@@](C)([C@@H]1O)C2(C)C`, the MIC is more than 15.1 µM. The same measure for `CC1(C)[C@@H]2CC[C@@]1(C)[C@H](O)[C@@H]2NC(=O)c1cccnc1`: 18.2 µM (≈ 5 µg/mL). Regarding `CCNC(=O)N[C@@H]1[C@H]2CC[C@@](C)([C@@H]1O)C2(C)C`, the MIC was more than 20.8 µM. The same measure for `CC1(C)[C@@H]2CC[C@@]1(C)[C@H](O)[C@@H]2NC(=O)CCc1ccccc1`: 6.63 µM (≈ 2 µg/mL).
